What was measured:
[1] = system: OPM-2 human multiple myeloma cell line; assay: Cell Viability Assay (OPM-2 10 FBS); type: cell-based; details: OPM-2 cells, 16 h, CellTiter-Glo
Summary of the method: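 OPM-2 myeloma cells, 3000/well in medium with 10% FBS, exposed to serially diluted compounds for 16 h at 37° C./5% CO2. Viability read by CellTiter-Glo luminescence; IC50 from 4-parameter logistic fit.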

[2] = biological target: T1, Mcl-1/Bim interaction, recombinant human Mcl-1 (171-327) (Homo sapiens, UniProt Q07820); assay: Cell free Mcl-1: Bim Affinity Assay (Mcl-1 HTRF); type: binding
T1 construct: made in house
Summary of the method: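 Compounds were mixed with the protein and a biotinylated Bim peptide spanning human residues 51-76. Plates were left overnight, then TR-FRET signal was measured. A four-parameter sigmoidal model applied to duplicate competition data gave IC50.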

[3] = cell free Mcl-1:Bim TR-FRET, recombinant human Mcl-1 (171-327)
[4] = TR-FRET, 0.1 nM Mcl-1 (171-327), 0.05 nM biotin-Bim (51-76)

T1 sequence (Q07820 171-327): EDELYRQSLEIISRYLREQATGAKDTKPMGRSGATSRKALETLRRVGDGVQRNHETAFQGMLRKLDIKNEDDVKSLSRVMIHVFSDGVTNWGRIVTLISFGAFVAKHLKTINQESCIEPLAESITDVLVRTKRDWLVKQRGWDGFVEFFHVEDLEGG

| IC50 ([1]; Homo sapiens, OPM-2, 16 h) [nM] | IC50 [2, 3] [nM] | IC50 [2, 4] [nM] | Structure (SMILES) | IC50 [1] [nM] |
| --- | --- | --- | --- | --- |
| 467 | 1.86 | – | C[C@@H]1[C@@H](C)C/C=C/[C@H](OCCO[C@H]2CCCCO2)[C@@H]2CC[C@H]2CN2C[C@@]3(CCCc4cc(Cl)ccc43)COc3ccc(cc32)C(=O)NS1(=O)=O (mixture of isomers) [Example 517] | – |
| 2980 | – | 2.02 | O=C1NS(=O)(=O)[C@@H]2CCC[C@@H]2C/C=C/[C@H](O)[C@@H]2CC[C@H]2CN2C[C@@]3(CCCc4cc(Cl)ccc43)COc3ccc1cc32 (single isomer, unassigned) [Example 323] | – |
| – | – | 0.414 | C[C@@H]1[C@@H](C)C/C=C/[C@H](O[C@H]2CCOC2=O)[C@@H]2CC[C@H]2CN2C[C@@]3(CCCc4cc(Cl)ccc43)COc3ccc(cc32)C(=O)NS1(=O)=O (single isomer, unassigned) [Example 427] | 204 |
| 312 | – | 0.685 | C[C@@H]1[C@@H](C)C/C=C/[C@H](OCCN(C)c2ccccn2)[C@@H]2CC[C@H]2CN2C[C@@]3(CCCc4cc(Cl)ccc43)COc3ccc(cc32)C(=O)NS1(=O)=O [Example 13, (1S,3′R,6′R,7′S,8′E,11′S,12′R)-6-chloro-11′,12′-dimethyl-7′-(2-(methyl(2-pyridinyl)amino)ethoxy)-3,4-dihydro-2H,15′H-spiro[naphthalene-1,22′-[20]oxa[13]thia[1,14]diazatetracyclo[14.7.2.0˜3,6˜.0˜19,24˜]pentacosa[8,16,18,24]tetraen]-15′-one 13′,13′-dioxide] | – |
| 15200 | 0.362 | – | NC(=O)OC[C@@H]1CC/C=C\[C@H](O)[C@@H]2CC[C@H]2CN2C[C@@]3(CCCc4cc(Cl)ccc43)COc3ccc(cc32)C(=O)NS1(=O)=O (single isomer, unassigned) [Example 612] | – |
| 23100 | – | 45.2 | CC1CC=CC(O)C2CCC2CN2CC3(CCCc4cc(Cl)ccc43)COc3ccc(cc32)C(=O)NS(=O)(=O)C1 (single isomer, unassigned) [Example 231] | – |
| – | 0.598 | – | CC(C)(O)C[C@@H]1CC/C=C/[C@H](O)[C@@H]2CC[C@H]2CN2C[C@@]3(CCCc4cc(Cl)ccc43)COc3ccc(cc32)C(=O)NS1(=O)=O (single isomer, unassigned) [Example 559] | 4420 |
| 2410 | – | 1.29 | Cc1cc(CO[C@H]2/C=C/CC[C@@H](C)S(=O)(=O)NC(=O)c3ccc4c(c3)N(C[C@@H]3CC[C@H]32)C[C@@]2(CCCc3cc(Cl)ccc32)CO4)no1 [Example 411, (1S,3′R,6′R,7′S,8′E,12′R)-6-chloro-12′-methyl-7′-((5-methyl-3-isoxazolyl)methoxy)-3,4-dihydro-2H,15′H-spiro[naphthalene-1,22′-[20]oxa[13]thia[1,14]diazatetracyclo[14.7.2.0^3,6.0^19,24]pentacosa [8,16,18,24]tetraen]-15′-one 13′,13′-dioxide] | – |
| 322 | – | 0.44 | O=C1NS(=O)(=O)[C@H]2CC[C@@H]2C/C=C/[C@H](O)[C@@H]2CC[C@H]2CN2C[C@@]3(CCCc4cc(Cl)ccc43)COc3ccc1cc32 (single isomer, unassigned) [Example 90] | – |
| 362 | 0.998 | – | COCCCO[C@H]1/C=C/C[C@H](C)[C@@H](C)S(=O)(=O)NC(=O)c2ccc3c(c2)N(C[C@@H]2CC[C@H]21)C[C@@]1(CCCc2cc(Cl)ccc21)CO3 [Example 512, (1S,3′R,6′R,7′S,8′E,11′S,12′R)-6-chloro-7′-(3-methoxypropoxy)-11′,12′-dimethyl-3,4-dihydro-2H,15′H-spiro[naphthalene-1,22′-[20]oxa[13]thia[1,14]diazatetracyclo[14.7.2.0^3,6.0^19,24]pentacosa [8,16,18,24]tetraen]-15′-one 13′,13′-dioxide] | – |
| 192 | 0.891 | – | CCOC(=O)NCCO[C@H]1/C=C/C[C@H](C)[C@@H](C)S(=O)(=O)NC(=O)c2ccc3c(c2)N(C[C@@H]2CC[C@H]21)C[C@@]1(CCCc2cc(Cl)ccc21)CO3 [Example 736, ethyl (2-(((1S,3′R,6′R,7′S,8′E,11′S,12′R)-6-chloro-11′,12′-dimethyl-13′, 13′-dioxido-15′-oxo-3,4-dihydro-2H-spiro[naphthalene-1,22′-[20]oxa[13]thia[1,14]diazatetracyclo[14.7.2.0^3,6.0^19,24]pentacosa[8,16,18,24]tetraen]-7′-yl)oxy)ethyl)carbamate] | – |
| 567 | – | 0.2 | C[C@@H]1[C@@H](C)C/C=C/[C@H](OCC(=O)NC2COC2)[C@@H]2CC[C@H]2CN2C[C@@]3(CCCc4cc(Cl)ccc43)COc3ccc(cc32)C(=O)NS1(=O)=O [Example 303, 2-(((1S,3′R,6′R,7′S,8′E,11′S,12′R)-6-chloro-11′,12′-dimethyl-13′,13′-dioxido-15′-oxo-3,4-dihydro-2H-spiro[naphthalene-1,22′-[20]oxa[13]thia[1,14]diazatetracyclo[14.7.2.0^3,6.0^19,24]pentacosa [8,16,18,24]tetraen]-7′-yl)oxy)-N-3-oxetanylacetamide] | – |
| 630 | – | 2.97 | C[C@@H]1[C@@H](C)C/C=C/[C@H](OCCN2CCC(F)(F)CC2)[C@@H]2CC[C@H]2CN2C[C@@]3(CCCc4cc(Cl)ccc43)COc3ccc(cc32)C(=O)NS1(=O)=O [Example 10, (1S,3′R,6′R,7′S,8′E,11′S,12′R)-6-chloro-7′-(2-(4,4-difluoro-1-piperidinyl)ethoxy)-11′,12′-dimethyl-3,4-dihydro-2H,15′H-spiro[naphthalene-1,22′-[20]oxa[13]thia[1,14]diazatetracyclo[14.7.2.0^3,6.0^19,24]pentacosa[8,16,18,24]tetraen]-15′-one-13,13′-dioxide] | – |
| 1540 | 0.329 | – | N#CCC[C@@H]1CC/C=C/[C@H](O)[C@@H]2CC[C@H]2CN2C[C@@]3(CCCc4cc(Cl)ccc43)COc3ccc(cc32)C(=O)NS1(=O)=O (single isomer, unassigned) [Example 613] | – |
| 835 | – | 1.08 | O=C1NS(=O)(=O)CCC/C=C/[C@@H](OCCN2CCOCC2)[C@@H]2CC[C@H]2CN2C[C@@]3(CCCc4cc(Cl)ccc43)COc3ccc1cc32 [Example 213, (1S,3′R,6′R,7′R,8′E)-6-chloro-7′-(2-(4-morpholinyl)ethoxy)-3,4-dihydro-2H,15′H-spiro[naphthalene-1,22′-[20]oxa[13]thia[1,14]diazatetracyclo[14.7.2.0^3,6.0^19,24]pentacosa [8,16,18,24]tetraen]-15′-one 13′,13′-dioxide] | – |
| – | 2.4 | – | COC[C@H](O)C[C@@H]1CC/C=C/[C@H](OC)[C@@H]2CC[C@H]2CN2C[C@@]3(CCCc4cc(Cl)ccc43)COc3ccc(cc32)C(=O)NS1(=O)=O (single isomer, unassigned) [Example 652] | 4460 |
| 3670 | – | 0.216 | O=C(O)CO[C@@H]1/C=C/CCCS(=O)(=O)NC(=O)c2ccc3c(c2)N(C[C@@H]2CC[C@H]21)C[C@@]1(CCCc2cc(Cl)ccc21)CO3 [Example 218, (((1S,3′R,6′R,7′R,8′E)-6-chloro-13′,13′-dioxido-15′-oxo-3,4-dihydro-2H-spiro[naphthalene-1,22′-[20]oxa[13]thia[1,14]diazatetracyclo[14.7.2.0^3,6.0^19,24]pentacosa [8,16,18,24]tetraen]-7′-yl)oxy)acetic acid] | – |
| – | 0.394 | – | CC(C)C[C@@H]1C[C@@H](C)/C=C/[C@H](O)[C@@H]2CC[C@H]2CN2C[C@@]3(CCCc4cc(Cl)ccc43)COc3ccc(cc32)C(=O)NS1(=O)=O (single isomer, unassigned) [Example 480] | 1080 |

| Structure (SMILES) | IC50 ([1]; Homo sapiens, OPM-2, 16 h) [nM] | IC50 [2, 3] [nM] | IC50 [2, 4] [nM] | IC50 [1] [nM] |
| --- | --- | --- | --- | --- |
| CO[C@@H]1/C=C/[C@H](O)[C@@H]2CC[C@H]2CN2C[C@@]3(CCCc4cc(Cl)ccc43)COc3ccc(cc32)C(=O)NS(=O)(=O)[C@H](C)C1 (single isomer, unassigned) [Example 489] | – | 0.666 | – | 1220 |
| CC(C)(C)S(=O)(=O)CC[C@@H]1CC/C=C/[C@H](O)[C@@H]2CC[C@H]2CN2C[C@@]3(CCCc4cc(Cl)ccc43)COc3ccc(cc32)C(=O)NS1(=O)=O.CC(C)(C)S(=O)(=O)CC[C@H]1CC/C=C/[C@H](O)[C@@H]2CC[C@H]2CN2C[C@@]3(CCCc4cc(Cl)ccc43)COc3ccc(cc32)C(=O)NS1(=O)=O (mixture of isomers) [Example 154] | – | – | 0.259 | 7580 |
| COC(=O)CC1CCC=CC(O)C2CCC2CN2CC3(CCCc4cc(Cl)ccc43)COc3ccc(cc32)C(=O)NS1(=O)=O (single isomer, unassigned) [Example 619] | – | 0.187 | – | 401 |
| COC(=O)CC[C@@H]1CC/C=C/[C@H](O)[C@@H]2CC[C@H]2CN2C[C@@]3(CCCc4cc(Cl)ccc43)COc3ccc(cc32)C(=O)NS1(=O)=O [Example 616] | – | 0.178 | – | 482 |
| O=C1NS(=O)(=O)C[C@@H]2C[C@@H]2/C=C/[C@H](O)[C@@H]2CC[C@H]2CN2C[C@@]3(CCCc4cc(Cl)ccc43)COc3ccc1cc32 (single isomer, unassigned) [Example 784] | – | 2.69 | – | 14200 |
| COC(=O)CO[C@H]1/C=C/CC[C@@H](C2CC2)S(=O)(=O)NC(=O)c2ccc3c(c2)N(C[C@@H]2CC[C@H]21)C[C@@]1(CCCc2cc(Cl)ccc21)CO3 (single isomer, unassigned) [Example 161] | – | – | 1.31 | 86 |
| O=C1NS(=O)(=O)C(c2ccccc2)CC/C=C/[C@H](O)[C@@H]2CC[C@H]2CN2C[C@@]3(CCCc4cc(Cl)ccc43)COc3ccc1cc32 (single isomer, unassigned) [Example 674] | – | 8.2 | – | 1090 |
| COCCOCC[C@@H]1[C@@H](C)C/C=C/[C@H](O)[C@@H]2CC[C@H]2CN2C[C@@]3(CCCc4cc(Cl)ccc43)COc3ccc(cc32)C(=O)NS1(=O)=O (single isomer, unassigned) [Example 402] | – | – | 18.6 | 13600 |
